Source: patent publication US8859235B2, “Methods in cell cultures, and related inventions, employing certain additives” (priority 2009, dated 2014)

Columns and labels:
Assay type in all cases: cell-based, Escherichia coli
E. coli HM125 = test: Growth and expression of FimH-CRD in E. coli HM125, shake flask cultivation in mineral medium; details: for mg FimH/g cell: control 0.81; for FimH / Cell pellet: mean of triplicate; for FimH: control 6.48 ± 0.36; for Cell pellet: control 7.99 ± 0.25
Source text: Standard molecular techniques are used for the cloning of the FimH carbohydrate recognition domain (FimH-CRD). The plasmid pfimHs-trc, encoding FimH lectin domain (1-156 amino acids M. Vetsch P et. al. 2002—J. Mol. Biol. 322: 827-840), is kindly provided by R. Glockshuber (ETH Zürich, Switzerland). The FimH-CRD fragment is amplified by polymerase chain reaction using specific forward primer containing the restriction site NdeI and a specific reverse primer containing the thrombin cleavage site and the restriction site XhoI, respectively. The insert is ligated into the corresponding cloning site in pET21b. The resulting contrast is named pET21b-FimH-CRD.
Precultures are prepared in 25 mL sterile LB medium [Tryptone (10.0 g/L), yeast extract (5.0 g/L), NaCl (10.0 g/L), ampicillin 100 (mg/L); adjusted to pH 7.0 with NaOH]. Cultures are inoculated with a glycerol stock stored at −80° C. of the protease deficient strain E. coli HM125 (Meerman H J & Georgiou G. 1994. Biotechnology (NY) 2, 1107-1110) harboring the plasmid pET21b-FimH-CRD Vector. Precultures are incubated at 37° C. for 10-12 h. Experimental cultures are performed in a volume of 500 mL of modified M9 medium [Na2HPO4×7H2O (12.8 g/L), KH2PO4 (3 g/L), NaCl (0.5 g/L), NH4Cl (1 g/L), D-glucose (4 g/L), MgSO4 (0.12 g/L), CaCl2 (0.01 g/L) and vitamins (in mg/L): riboflavin (0.1), choline chloride (1), folic Acid (1), niacinamide (1), p-amino benzoic acid (1), pyridoxal-HCl (1), thiamine-HCl (1), myo-lnositol (2)] supplemented with 100 mg/L ampicillin. Cultures are inoculated with 5 mL of the preoculture and grown at 30° C. and 150 rpm) until the optical density at 600 nm (0D600) reached 0.8-1.0. Then 1 mM IPTG and the stabilizer(s) (obligatory additive) according to the invention are added to final concentrations of 5, 10 and 20 mM as indicated from sterile stock solutions and the cultures are grown overnight. Then the cells are cooled on ice for 5 min and harvested by centrifugation at 5′000 rpm for 20 min at 4° C. Cell are harvested by centrifugation and biomass is quantified by weighing the wet cell pellets. The pellet is suspended in a cold solution of 50 mM Tris-HCl, pH 7.5, 150 mM NaCl, 5 mM EDTA, 1 mg/mL polymyxin B sulfate and stirred for two hours at 4° C. After centrifugation at 11′000 rpm for 20 min at 4° C., the supernatant (periplasmic extract) is dialyzed overnight against 50 mM NaH2PO4, 300 mM NaCl and 10 mM imidazole, pH 8 (binding buffer) and applied to a Ni-NTA column (Sigma, Buchs, Switzerland) attached to a BioLogic fast protein liquid chromatography system (BioRad, Reinach BL, Switzerland). The column is washed with binding buffer and afterwards eluted with 50 mM NaH2PO4, 300 mM NaCl and 250 mM imidazole, pH 8 (elution buffer). Fractions containing FimH-CRD-Th-6H is are pooled and dialyzed against water and then against 20 mM HEPES, 150 mM NaCl and 1 mM CaCl2, pH 7.4.
The concentration of protein is determined by HPLC method (Agilent 1100/1200 series) using BSA as standard (Sigma). The column Poros R1/10 10 μm (100×2 mm, Morvay Analytik) is kept at 60° C.; eluents are A: 0.1% trifluoroacetic acid (TFA) in H2O and B: 90% MeCN+0.09% TFA. A gradient of 20% B to 90% B is run within 20 min at a flow rate of 0.2 mL/min. The detection is monitored at 210 nm. Results are compiled in the following tables 5 and 6.

E. coli BL21 = test: Growth and GFPuv expression in E. coli BL21 (DE3), shake flask batch culture in complex medium
Description: (§1) The measurement of GFP expression by whole cell fluorescence measurements follows the procedure of Scholz et al. (Eur. J. Biochem., 2000,267, 1565-1570). Frozen cell pellets are thawed, resuspended in 1 mL PBS [NaCl (8 g/L), KCl (0.2), of Na2HPO4 (1.44), KH2PO4 (0.24), adjusted to pH 7.4] and subsequently diluted to an optical density of 0.1. GFP fluorescence of whole cells is measured in a Eclipse Fluorometer (Varian) with an excitation wavelength of 400 nm and an emission wavelength of 512 nm. Specific relative fluorescence [RFU/OD600] is calculated by dividing the relative fluorescence emmision units by the optical density of the suspension at 600 nm.
Precultures are prepared in 250 mL baffled shake flasks containing 25 mL sterile LB medium [Tryptone (10.0 g/L), yeast extract (5.0), NaCl (10.0), kanamycin 30 (mg/L); adjusted to pH 7.0 with NaOH]. Cultures are inoculated with 250 μL of a glycerol stock stored at −80° C. of E. coli BL21 [Novagen, Madison, USA; Genotype: E ompT hsdSB (rB^− mB^−) gal dcm (DE3)] harboring the plasmid pET28a-GFPuv which is obtained by inserting the GFPuv gene (isolated from pBAD-GFPuv through PCR) into the EcoRI site of pET28a (Novagen, Madison, USA) which placed the GFPuv gene under the control of the T7/Lac promotor system. Precultures are incubated at 37° C. for 10-12 h.
Experimental cultures are performed in a volume of 25 mL of the above described medium in 250 mL baffled shake flasks. Stabilizers are added to a final concentration of 5 mM as indicated from sterile stock solutions. Cultures are started by inoculating with the preculture to an OD600 at 600 nm of 0.25. Samples are taken for OD600 measurements. Cultures are induced by adding IPTG (Isopropyl-β-D-thiogalactoside) to a final concentration of 0.5 mM when the OD600 reaches 0.5. Samples of 1 mL are taken after induction for OD600 reading and GFP quantification. For GFP quantification 1 mL of the culture is harvested after 2-4 h and after 20 h after induction. Cells are collected by centrifugation at 16 000 g and the cell pellet is stored at −20° C. for further analysis. Analysis of in vivo GFP fluorescence is performed by the method described in Example 1.

E. coli JM109 [1] = test: Growth and GFPuv expression in E. coli JM109, shake flask cultivation in mineral medium; details: additive 5 mM, 20 h, mean of two
Description: Precultures are prepared in 250 mL baffled shake flasks containing 25 mL sterile mineral medium [macronutrients in g/L: Glycerol (25), (NH4)2-citrate (1.0), Na2HPO4 2H2O (9.0), KH2PO4 (1.82), NH4Cl (1.52), MgSO4 (0.12), (NH4)2SO4 (0.6); Ampicillin ([…]); micronutrients in mg/L: Na2-EDTA (8.4), thiamine (4.5), Fe(III) citrate (12.5), Na2MoO4 2×H2O (2.5), H3BO3 (3), CoCl2 6×H2O (2.5), CuSO4 5×H2O (0.45) MnCl24×H2O (15), ZnCl2 (8) adjusted to pH 7.0]. Cultures are inoculated with 250 μL of a glycerol stock stored at −80° C. of E. coli JM109 (Promega Inc, Wallisellen, C H; Genotype: endA1, recA1, gyrA96, thi, hsdR17 (rk^−, mk^+), re/A1, supE44, Δ(lac-proAB), [F″ traD36, proAB, laql^qZΔM15]) harboring the plasmid pBAD-GFPuv (Biorad Inc., Reinach, C H; Genbank U62637.1, containing the GFPuv gene under control of the ara promoter; GFP=Green Fluorescent Protein). Precultures are incubated at 37° C. for 10-12 h.
Experimental cultures are performed in a volume of 25 mL of the above described medium in 250 mL baffled shake flasks. Stabilizers according to the invention are added to a final concentration of 5 mM as indicated from sterile stock solutions. Cultures are started by inoculating with the preculture to an optical density at 600 nm (OD600) of 0.25. Growth of the culture is monitored by reading optical density at 600 nm. Cultures are induced by adding L-arabinose to a final concentration of 0.2% (w/v) when the OD600 reaches 0.5. Samples of 1 mL are taken 6 and 20 h after induction for OD600 reading and GFP quantification. For GFP quantification 1 mL of the culture is harvested after 2-4 h and after 20 h after induction. Cells are collected by centrifugation at 16 000 g and the cell pellet is stored at −20° C. for further analysis.
as §1

E. coli JM109 [2] = test: Growth and GFP expression in high cell density fedbatch cultivation of E. coli JM109 in mineral medium; details: for Optical density Value / GFP expression (RFU/OD600) Value: additive 5 mM; for GFP expression Factor / Optical density Factor: relative to control = 1
Description: as §1
A first preculture of E. coli JM109 harboring the plasmid pBAD-GFPuv is initiated from glycerol stocks stored at −80° C. in 3 mL of LB medium containing 0.01% (v/v) Antifoam A (Fluka). After growth for 10-12 h it is used to seed 2×100 mL of mineral medium (as described in Example 1) containing 0.01% Antifoam A (silicone fluid containing a suspension of finely powdered silica to enhance its defoaming efficiency; Dow Corning Corporation, Midland, Mich., USA), in 1 L baffled shake flasks. After 10-12 h this culture is centrifuged resuspended in 50 mL mineral medium and is used to inoculate the main culture.
Cultivation is performed in BioFlow110 bioreactors (Total volume 2.2 L; New Brunswick Scientific, Nürtingen, Germany) filled with 1 L of mineral medium plus 0.01% (v/v) Antifoam A for the batch phase. Reactors are equipped with pH, pO2 and foam probes, mass flow controllers to control gas flow and ratio of air and pure oxygen and pumps for automated dosage of base (14% [v/v] aqueous NH3), antifoam (25% [v/v] Antifoam A) and nutrient feed solution. The agitation is set to 500 rpm and air is supplied at a gas flow rate of 2 L/min. The fedbatch culture is incoculated to an OD600 of 0.25-0.5 and allowed to grow unlimited with a specific growth rate of ˜0.5 h^−1. Growth is monitored by measuring OD600. When the disolved oxygen concentration decreases to 30%, automated adjustment of the air:oxygen ratio in the gas mix is started to control dO2 to 30% using a PID loop. When the gas mix consisted of 100% oxygen a further increase in oxygen transfer is achieved through increasing the agitation rate up to a maximum level of 1200 rpm. When glycerol in the batch medium is completely consumed, as indicated by a distinct drop of pure oxygen in the gas mix, feeding solutions (first containing 70 g/L glycerol and later as cell density increased 200 g/L glycerol in mineral medium) are pumped into the reactor by a predefined exponential fed scheme. The feeding rate is calculated to allow the cells to grow at a growth rate of approximately 0.15 h^−1. During the feeding phase dO2 is also kept at 30%. 3-6 h after starting the feeding protein expression is induced by the addition of 0.2 (w/v) L-arabinose. Samples are taken every hour for OD600 reading and to obtain cell pellets which are stored at −20° C. for further analysis. Analysis of in vivo GFP fluorescence is performed by the method described in Example 1.

[3] = Experiment 6, process time 24.75 h
[4] = Experiment 7, process time 17 h

In the case of CC1(C)CC(O)CC(C)(C)N1O [1,4-dihydroxy-2,2,6,6-tetramethylpiperidine], the “mg FimH/g cell” value (E. coli HM125; additive 5 mM) is reported as 1.1 mg FimH/g cell, the “FimH” value (E. coli HM125; additive 5 mM) is reported as 9.1 ± 0.56 mg/L and the “Cell pellet” value (E. coli HM125; additive 5 mM) is reported as 8.22 ± 0.35 g/L. The “mg FimH/g cell” value (E. coli HM125; additive 10 mM) was 1.22 mg FimH/g cell, the “FimH” value (E. coli HM125; additive 10 mM) was 9.59 ± 0.49 mg/L and the “Cell pellet” value (E. coli HM125; additive 10 mM) was 7.86 ± 0.25 g/L. The “mg FimH/g cell” value (E. coli HM125; additive 20 mM) was 1.26 mg FimH/g cell, the “FimH” value (E. coli HM125; additive 20 mM) was 10.08 ± 0.66 mg/L and the “Cell pellet” value (E. coli HM125; additive 20 mM) was 7.94 ± 0.33 g/L. For the same molecule, the “Growth (Final OD600)” value (E. coli BL21; Experiment 2, additive 5 mM, 20 h after induction, control 3.3) was 3.19 OD600, the “GFP expression (Relative fluorescence unit*OD600^−1)” value (E. coli BL21; Experiment 2, additive 5 mM, 20 h after induction, control 195) was 222 Relative fluorescence unit*OD600^−1 and the “Effect on GFPuv expression and growth, in words” value (E. coli BL21; comment on Table 2) was “shows at least some effect and is not detrimental”.
In the case of CC1(C)CC(O)CC(C)(C)N1 [4-Hydroxy-2,2,6,6-tetramethyl-piperidine], the “Growth (Final OD600)” value (E. coli JM109 [1]; Experiment 2, control 11.0) is reported as 10.9 OD600, the “GFP expression (Relative fluorescence unit*OD600^−1)” value (E. coli JM109 [1]; Experiment 2, control 1423) is reported as 1646 Relative fluorescence unit*OD600^−1 and the “Optical density Value” (E. coli JM109 [2]; Experiment 6, process time 24.75 h, control 10.3) is reported as 24.7. The “GFP expression (RFU/OD600) Value” (E. coli JM109 [2]; Experiment 6, process time 24.75 h, control 1038) was 5507 RFU/OD600, the “GFP expression Factor” value (E. coli JM109 [2]; [3]) was 5.3 and the “Optical density Factor” value (E. coli JM109 [2]; [3]) was 2.39. The “Optical density Value” (E. coli JM109 [2]; Experiment 7, process time 17 h, control 56.4) was 57.1, the “GFP expression (RFU/OD600) Value” (E. coli JM109 [2]; Experiment 7, process time 17 h, control 5765) was 6438 RFU/OD600 and the “GFP expression Factor” value (E. coli JM109 [2]; [4]) was 1.12. For the same molecule, the “Optical density Factor” value (E. coli JM109 [2]; [4]) was 1.01.
For “Tris(tetramethylhydroxypiperidinol) citrate”, the “Growth (Final OD600)” value (E. coli JM109 [1]; Experiment 3, control 10.4) was 11.4 OD600 and the “GFP expression (Relative fluorescence unit*OD600^−1)” value (E. coli JM109 [1]; Experiment 3, control 1189) was 2675 Relative fluorescence unit*OD600^−1.
